Data taken from patent US10377774B2 (JINAN UNIVERSITY, priority 2013, dated 2019).
Marks after values point to notes of the source that are not given here.

Legend:
[1] = system: doxorubicin-resistant human breast cancer cell lines MCF-7/ADR; experiment: MTT cell growth inhibition, MCF-7/ADR; assay type: cell-based; settings: MTT assay, 72 h, read-out: IC50, growth of tumor cell line
LOVO xenografts = LOVO xenografts in nude mice; assay type: in vivo; settings: LOVO xenograft nude mice
Procedure, shortened: (§1)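 Female BALB/nu/nu mice received 1×10^7 cells subcutaneously and were randomized at 70–100 mm^3, six per group. Compounds were given at 1 mg/kg i.p. every two days for 8 doses, with saline as control. Tumor volume was calculated as V=½(ab^2), and body weight was monitored.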

K562 xenografts = K562 xenografts in nude mice; assay type: in vivo; settings: K562 xenograft nude mice
Procedure, shortened: as §1

[2] = system: human umbilical vein endothelial cells HUVEC; experiment: MTT cytotoxicity on normal cells, HUVEC; settings: read-out: IC50, cytotoxicity on normal cell line; HUVEC, MTT assay
Procedure: (§2) Then, 100 μL of cells (cell concentration was 5×10^5/mL) were seeded into 96 wells plate. After 24 h incubation at 37° C. with 5% CO2, tested compounds were added (the control group without compound) for an additional 72 h incubation. After that, 30 μL of MTT [3-(4,5-Dimethylthiazol-2-yl)-2,5-diphenyltetrazolium bromide] solution (5 mg/mL) was added into each well and incubated for another 4 h at 37° C. and then the formazan crystals were solubilized with 100 μL DMSO. Finally, absorbance of each well was determined at 570 nm by a microplate reader (Thermo).
(§3) The standard curve was drew with compound concentrations as the abscissa and cell growth inhibition rates as the ordinate. The concentration required to inhibit cell growth by 50% (IC50) was calculated from survival curves.
(§4) Experimental method: In vitro cytotoxicities of vinca alkaloids, hydrazinolyzed vinca alkaloids and vinca alkaloid dipeptide derivatives on human normal liver cells LO2 and human umbilical vein endothelial cells HUVEC were detected according to the method of Example 2.

[3] = system: human non-small-cell lung cancer cell line A549; experiment: MTT cell growth inhibition, A549; assay type: cell-based; settings: A549, MTT assay, 72 h; read-out: IC50, growth of tumor cell line
From the text: (§5) Experimental method: Cell lines (human non-small-cell lung cancer cell line A549, human colon cancer cell line LOVO, human nasopharyngeal carcinoma cell line CNE-2, human liver cancer cell line HepG2, human cervical carcinoma cell line Hela, human breast cancer cell lines MCF-7 and MDA-MB-231, human gastric carcinoma cell line NCI-N87, human prostatic cancer cell lines PC-3 and DU145, human leukemia cell line K562, human melanoma cell line A375, human neuroblastoma cell line SH-SY5H, human promyelocytic leukemia cell line HL-60, 5-FU-resistant human hepatocellular carcinoma cell line BEL-7402/5-Fu, doxorubicin-resistant hepatocellular carcinoma cell line HepG2/ADM, doxorubicin-resistant human breast cancer cell lines MCF-7/ADR) at logarithmic phase were resuspended in RPMI 1640 medium (containing 10% fetal bovine serum, 100 U/mL penicillin-streptomycin). Then, 100 μL of cells (cell concentration was 5×10^5/mL) were seeded into 96 wells plate. After 24 h incubation at 37° C. with 5% CO2, tested compounds were added (the control group without compound) for an additional 72 h incubation. After that, 30 μL of MTT [3-(4,5-Dimethylthiazol-2-yl)-2,5-diphenyltetrazolium bromide] solution (5 mg/mL) was added into each well and incubated for another 4 h at 37° C. and then the formazan crystals were solubilized with 100 μL DMSO. Finally, absorbance of each well was determined at 570 nm by a microplate reader (Thermo).
(§6) The concentration required to inhibit cell growth by 50% (IC50) was calculated from survival curves.

[4] = system: human breast cancer cell line MCF-7; experiment: MTT cell growth inhibition, MCF-7; assay type: cell-based; settings: MCF-7, MTT assay, 72 h; read-out: IC50, growth of tumor cell line
[5] = system: human neuroblastoma cell line SH-SY5H; experiment: MTT cell growth inhibition, SH-SY5H; assay type: cell-based; settings: MTT assay, 72 h, read-out: IC50, growth of tumor cell line
From the text: as §5, §6

[6] = system: human nasopharyngeal carcinoma cell line CNE-2; experiment: MTT cell growth inhibition, CNE-2; assay type: cell-based; settings: CNE-2, MTT assay, 72 h; read-out: IC50, growth of tumor cell line
[7] = system: human colon cancer cell line LOVO; experiment: MTT cell growth inhibition, LOVO; assay type: cell-based; settings: LOVO (FAPα positive), MTT assay, 72 h; read-out: IC50, growth of tumor cell line
[8] = system: human promyelocytic leukemia cell line HL-60; experiment: MTT cell growth inhibition, HL-60; assay type: cell-based; settings: HL-60, MTT assay, 72 h; read-out: IC50, growth of tumor cell line
From the text: as §5, §6

[9] = system: doxorubicin-resistant hepatocellular carcinoma cell line HepG2/ADM; experiment: MTT cell growth inhibition, HepG2/ADM; assay type: cell-based, human; settings: MTT assay, 72 h, read-out: IC50, growth of tumor cell line
[10] = system: human prostatic cancer cell line PC-3; experiment: MTT cell growth inhibition, PC-3; assay type: cell-based; settings: PC-3, MTT assay, 72 h; read-out: IC50, growth of tumor cell line
From the text: as §5, §6

[11] = system: human cervical carcinoma cell line Hela; experiment: MTT cell growth inhibition, Hela; assay type: cell-based; settings: MTT assay, 72 h, read-out: IC50, growth of tumor cell line
[12] = system: human normal liver cells LO2; experiment: MTT cytotoxicity on normal cells, LO2; settings: read-out: IC50, cytotoxicity on normal cell line; LO2, MTT assay
Procedure: as §2, §3, §4

[13] = system: human leukemia cell line K562; experiment: MTT cell growth inhibition, K562; assay type: cell-based; settings: K562, MTT assay, 72 h; read-out: IC50, growth of tumor cell line
MDA-MB-231 xenografts = MDA-MB-231 xenografts in nude mice; assay type: in vivo, BALB/nu/nu mice; settings: MDA-MB-231 xenograft nude mice
Procedure, shortened: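 Female BALB/nu/nu mice bearing subcutaneous MDA-MB-231 tumours (1×10^7 cells; 70–100 mm^3 at randomisation), six per group. Compounds given at 1 mg/kg i.p. every two days for 8 doses versus saline. Tumour volume (V=½ab^2) and body weight tracked.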

HepG2 xenografts = HepG2 xenografts in nude mice; assay type: in vivo; settings: HepG2 xenograft nude mice
Procedure, shortened: as §1

[14] = system: human gastric carcinoma cell line NCI-N87; experiment: MTT cell growth inhibition, NCI-N87; assay type: cell-based; settings: NCI-N87, MTT assay, 72 h; read-out: IC50, growth of tumor cell line
From the text: as §5, §6

[15] = system: human liver cancer cell line HepG2; experiment: MTT cell growth inhibition, HepG2; assay type: cell-based; settings: HepG2, MTT assay, 72 h; read-out: IC50, growth of tumor cell line
From the text: as §5, §6

HL-60 xenografts = HL-60 xenografts in nude mice; assay type: in vivo; settings: HL-60 xenograft nude mice
Procedure, shortened: as §1

[16] = system: human melanoma cell line A375; experiment: MTT cell growth inhibition, A375; assay type: cell-based; settings: A375, MTT assay, 72 h; read-out: IC50, growth of tumor cell line
Kunming mice = experiment: Acute toxicity test; assay type: in vivo; settings: injected intraperitoneally
Procedure: Experimental method: Kunming mice were purchased from Guangdong Medical Experimental Animal Center, weighing 18-22 g, then randomly divided into several groups with 10 mice in each group. Different concentrations of VLB and vinca alkaloid dipeptide derivatives were injected intraperitoneally. Finally, the median lethal dose (LD50) was calculated according to the surviving animals.
LD50 was measured using the following formula:
LD50 (mg/kg)=The median lethal dose/body weight

[17] = system: 5-FU-resistant human hepatocellular carcinoma cell line BEL-7402/5-Fu; experiment: MTT cell growth inhibition, BEL-7402/5-Fu; assay type: cell-based; settings: MTT assay, 72 h, read-out: IC50, growth of tumor cell line
From the text: as §5, §6

[18] = system: human prostatic cancer cell line DU145; experiment: MTT cell growth inhibition, DU-145; assay type: cell-based; settings: DU-145, MTT assay, 72 h; read-out: IC50, growth of tumor cell line
[19] = system: human breast cancer cell line MDA-MB-231; experiment: MTT cell growth inhibition, MDA-MB-231; assay type: cell-based; settings: MDA-MB-231, MTT assay, 72 h; read-out: IC50, growth of tumor cell line
[20] = 1 mg/kg i.p. every two days, 8 administrations

CCC1(O)CC2CN(CCc3c([nH]c4ccccc34)C(C(=O)OC)(c3cc4c(cc3OC)N(C=O)C3C(O)(C(=O)NNC(=O)C5CCCN5C(=O)CNC(=O)OCc5ccccc5)C(O)C5(CC)C=CCN6CCC43C65)C2)C1 (stereo not shown) [BX-CCXJ, Z-GP-NHNH-Vincristine]
IC50 [1]: 169 ± 5.67 nM
Anti-tumor rate (%) (LOVO xenografts; 1 mg/kg): 79.45** %
Body weight (g) Post-dose (LOVO xenografts; 1 mg/kg): 24.2 ± 1.7 g
Tumor weight (LOVO xenografts; 1 mg/kg): 0.59 ± 0.33 g
Body weight (g) Pre-dose (LOVO xenografts; before dosing): 23.8 ± 1.0 g
Anti-tumor rate (%) (K562 xenografts; 1 mg/kg): 75.00** %
Body weight (g) Post-dose (K562 xenografts; 1 mg/kg): 22.5 ± 1.1 g
Tumor weight (K562 xenografts; 1 mg/kg): 0.42 ± 0.14 g
Body weight (g) Pre-dose (K562 xenografts; before dosing): 21.2 ± 0.9 g
IC50 [2]: 176 ± 5.51 nM
IC50 [3]: 47.7 ± 2.64 nM
IC50 [4]: 73.2 ± 3.66 nM
IC50 [5]: 61.7 ± 6.14 nM
IC50 [6]: 40.1 ± 2.09 nM
IC50 [7]: 24.9 ± 1.78 nM
IC50 [8]: 72.8 ± 4.59 nM
IC50 [9]: 135 ± 5.54 nM
IC50 [10]: 88.9 ± 6.84 nM
IC50 [11]: 55.3 ± 1.9 nM
IC50 [12]: 101 ± 9.02 nM
IC50 [13]: 44.9 ± 3.28 nM
Anti-tumor rate (%) (MDA-MB-231 xenografts; [20]): 91.18** %
Body weight (g) Post-dose (MDA-MB-231 xenografts; [20]): 21.9 ± 2.9 g
Tumor weight (MDA-MB-231 xenografts; [20]): 0.23 ± 0.09 g
Body weight (g) Pre-dose (MDA-MB-231 xenografts; before dosing): 19.5 ± 1.4 g
Anti-tumor rate (%) (HepG2 xenografts; 1 mg/kg): 88.63** %
Body weight (g) Post-dose (HepG2 xenografts; 1 mg/kg): 21.9 ± 2.1 g
Tumor weight (HepG2 xenografts; 1 mg/kg): 0.29 ± 0.13 g
Body weight (g) Pre-dose (HepG2 xenografts; before dosing): 22.2 ± 1.2 g
IC50 [14]: 43.2 ± 3.53 nM
IC50 [15]: 33.4 ± 2.01 nM
Anti-tumor rate (%) (HL-60 xenografts; 1 mg/kg): 72.12** %
Body weight (g) Post-dose (HL-60 xenografts; 1 mg/kg): 19.7 ± 0.9 g
Tumor weight (HL-60 xenografts; 1 mg/kg): 0.58 ± 0.17 g
Body weight (g) Pre-dose (HL-60 xenografts; before dosing): 19.3 ± 1.1 g
IC50 [16]: 54.8 ± 8.41 nM
LD50 (median lethal dose) (Kunming mice): 10 mg/kg
IC50 [17]: 326 ± 13.3 nM
IC50 [18]: 76.9 ± 4.55 nM
IC50 [19]: 57.3 ± 3.36 nM
